The test system of one data set is Homo sapiens. In words: (§1) Evaluation of pharmacokinetic parameters for Budesonide following single oral administration of Budesonide capsules (enteric coated) to healthy subjects and/or patients with Crohn's disease. In kind it is ADME, organism-based. More on the design: dose 9 mg, route oral. As to conditions: in vivo, po, dosed compound id 9, dosed compound name BUDESONIDE, gender male and female, regimen Single dose, tissue Plasma.

A short description of data set [1]: as §1. As to conditions: human, in vivo, dosed compound id 9, dosed compound name BUDESONIDE, regimen Single dose, tissue Plasma. The data set is classed as ADME, organism-based. More on the design: dose 9 mg, route oral.
[2] abbreviates: po, 9 mg, gender male and female.

Data on one compound can be found in ChEMBL document CHEMBL3832549, “DailyMed|setid=7633c9b3-dfb5-446f-a260-e44b6e48afa2 | BUDESONIDE- budesonide capsule|Carilion Materials Management”.

Molecules are shown by their SMILES.

A word on the Tmax: it is the time at which the peak concentration occurs. The AUC is concentration integrated over time. A low value points to less exposure. One may read the Cmax as the peak of the concentration-time curve. As to `CCCC1O[C@@H]2C[C@H]3[C@@H]4CCC5=CC(=O)C=C[C@]5(C)[C@H]4[C@@H](O)C[C@]3(C)[C@]2(C(=O)CO)O1` (stereo not given in full) [BUDESONIDE], the Vd in the data set on Homo sapiens fell in the range of 2.2 to 3.9 L/kg. Moreover, in data set [1] (9 mg, route oral), the Tmax was 0.5 to 10 h. In data set [1] (setting [2]), the AUC was 0.03 µM·h and the Cmax amounted to 5 nM. Further, the fraction unbound in data set [1] (po, at 9 mg, gender male and female, route oral, read-out: Protein binding) was in the range of 0.1 to 0.15.
